From patent US5198433A, “Lactamimides as calcium antagonists” (Merrell Dow Pharmaceuticals Inc., priority 1992, dated 1993)

Tests used:
[1] = system: isolated guinea pig hearts; conditions: cited from earlier work
calcium currents = conditions: potency compared with diltiazem; cited from earlier work
[2] = system: [3H]nitrendipine binding in rat cerebral cortical and cardiac homogenates; conditions: cited from earlier work
adenylate cyclase = conditions: a number of tissues; cited from earlier work
[3] = biological target: T1, K^+ -depolarized guinea pig ileum or taenia (Cavia porcellus); assay: Antagonism of Ca^++ -induced contractions of K^+ -depolarized guinea pig taenia or ileum; format: cell-based; conditions: FIG. 6; 40 mM K^+ -depolarized guinea pig ileum
T1 construct: pieces of ileum, 2 cm in length, from male guinea pigs (200-400 g) were set up in isolated organ baths; from tissue; host or cells: strips of taenia from the caecum or pieces of ileum of male guinea pigs
Procedure: Strips of taenia from the caecum or pieces of ileum, 2 cm in length, from male guinea pigs (200-400 g) were set up in isolated organ baths in Ca^++ -free K^+ Tyrode's solution (mM NaCl 137, KCl 40, NaH2 PO4 0.4, NaHCO3 11.9, glucose 5.5) and gassed with 95% O2, 5% CO2 at 37° C. Contractions were measured with isotonic transducers with a 1 g load. Cumulative dose-response curves were obtained. Tissues were then washed and incubated with the compounds for 20-25 minutes and then Ca^++ concentration response curves re-established. […] Dose ratios were determined graphically at ED50 values from the Ca^++ dose-response curve and Schild plots were constructed to determine pA2 value using inverse regression line analysis. Alternatively, when only one concentration of an antagonist was used, pA2 values were calculated according to the method of J. M. Van Rossum, Arch. Int. Pharmacodyn Ther. 143: 299-330 (1963).

[4] = biological target: [^3 H]d-cis-diltiazem binding to rat whole brain membranes (calcium ion-channel protein); assay: [^3 H]d-cis-Diltiazem binding assay (displacement from rat whole brain membranes); design: species or system rat (male Sprague-Dawley); conditions: for IC50: ligand […]
Procedure: The whole brain from male Sprague-Dawley rats (200-300 g) was dissected and homogenized in cold 50 mM Tris-HCl buffer (pH 7.4) for 2 x 30 second periods by Polytron (Brinkmann, setting No. 5). The homogenate was washed 2 times (48,000 ×g for 10 minutes, 4° C.) with intermittent resuspension of the pellet in fresh buffer. The final pellet was resuspended to an original tissue concentration of 100 mg/ml in Tris-HCl buffer. […] The reaction was terminated by rapid filtration under a vacuum through 0.05% polyethylenimine-pretreated Whatman GF/B glass fiber filters. Filters were immediately washed 2 times with 4 ml of cold Tris-HCl buffer. Pretreatment of the filters with 0.05% polyethylenimine served to eliminate [^3 H]d-cis-diltiazem binding to the filter. The filters were dried and the radioactivity in the filters was extracted overnight in scintillation fluid.

[5] = biological target: T2, [^3 H]nitrendipine binding to rat heart membranes (calcium ion-channel protein) (Rattus norvegicus, UniProt P22002); assay: [^3 H]Nitrendipine binding assay (enhancement of binding to rat heart membranes); design: species or system rat (male Sprague-Dawley); conditions: ligand 0.1 nM, mean ± SEM; for activity at 1 µM: 10^-6 M; for activity at 0.1 µM: 10^-7 M
T2 construct: Membranes were prepared from the hearts of male Sprague-Dawley rats; from tissue; host or cells: heart membranes of male Sprague-Dawley rats
Procedure: Membranes were prepared from the hearts of male Sprague-Dawley rats and [^3 H]nitrendipine binding was conducted as described in detail by H. R. Lee, et al., J. Pharmacol Exp. Ther. 233:611-616, (1985), as modified by F. J. Ehlert, et al., Biochem. Biophys. Rec. Common. 104:937-943, (1982). The ability of compounds tested at 10^-6 and 10^-7 M to enhance [^3 H]nitredepine binding was taken as indicative of diltiazem-like calcium antagonistic properties.
Values are the mean ± SEM of single experiments run in triplicate at
the concentrations of drugs indicated. Ligand concentration was 0.1 nM an
control specific binding was 49.6 ± 1.7 fmol/mg protein.

T2 sequence (P22002 whole entry, other chains not shown): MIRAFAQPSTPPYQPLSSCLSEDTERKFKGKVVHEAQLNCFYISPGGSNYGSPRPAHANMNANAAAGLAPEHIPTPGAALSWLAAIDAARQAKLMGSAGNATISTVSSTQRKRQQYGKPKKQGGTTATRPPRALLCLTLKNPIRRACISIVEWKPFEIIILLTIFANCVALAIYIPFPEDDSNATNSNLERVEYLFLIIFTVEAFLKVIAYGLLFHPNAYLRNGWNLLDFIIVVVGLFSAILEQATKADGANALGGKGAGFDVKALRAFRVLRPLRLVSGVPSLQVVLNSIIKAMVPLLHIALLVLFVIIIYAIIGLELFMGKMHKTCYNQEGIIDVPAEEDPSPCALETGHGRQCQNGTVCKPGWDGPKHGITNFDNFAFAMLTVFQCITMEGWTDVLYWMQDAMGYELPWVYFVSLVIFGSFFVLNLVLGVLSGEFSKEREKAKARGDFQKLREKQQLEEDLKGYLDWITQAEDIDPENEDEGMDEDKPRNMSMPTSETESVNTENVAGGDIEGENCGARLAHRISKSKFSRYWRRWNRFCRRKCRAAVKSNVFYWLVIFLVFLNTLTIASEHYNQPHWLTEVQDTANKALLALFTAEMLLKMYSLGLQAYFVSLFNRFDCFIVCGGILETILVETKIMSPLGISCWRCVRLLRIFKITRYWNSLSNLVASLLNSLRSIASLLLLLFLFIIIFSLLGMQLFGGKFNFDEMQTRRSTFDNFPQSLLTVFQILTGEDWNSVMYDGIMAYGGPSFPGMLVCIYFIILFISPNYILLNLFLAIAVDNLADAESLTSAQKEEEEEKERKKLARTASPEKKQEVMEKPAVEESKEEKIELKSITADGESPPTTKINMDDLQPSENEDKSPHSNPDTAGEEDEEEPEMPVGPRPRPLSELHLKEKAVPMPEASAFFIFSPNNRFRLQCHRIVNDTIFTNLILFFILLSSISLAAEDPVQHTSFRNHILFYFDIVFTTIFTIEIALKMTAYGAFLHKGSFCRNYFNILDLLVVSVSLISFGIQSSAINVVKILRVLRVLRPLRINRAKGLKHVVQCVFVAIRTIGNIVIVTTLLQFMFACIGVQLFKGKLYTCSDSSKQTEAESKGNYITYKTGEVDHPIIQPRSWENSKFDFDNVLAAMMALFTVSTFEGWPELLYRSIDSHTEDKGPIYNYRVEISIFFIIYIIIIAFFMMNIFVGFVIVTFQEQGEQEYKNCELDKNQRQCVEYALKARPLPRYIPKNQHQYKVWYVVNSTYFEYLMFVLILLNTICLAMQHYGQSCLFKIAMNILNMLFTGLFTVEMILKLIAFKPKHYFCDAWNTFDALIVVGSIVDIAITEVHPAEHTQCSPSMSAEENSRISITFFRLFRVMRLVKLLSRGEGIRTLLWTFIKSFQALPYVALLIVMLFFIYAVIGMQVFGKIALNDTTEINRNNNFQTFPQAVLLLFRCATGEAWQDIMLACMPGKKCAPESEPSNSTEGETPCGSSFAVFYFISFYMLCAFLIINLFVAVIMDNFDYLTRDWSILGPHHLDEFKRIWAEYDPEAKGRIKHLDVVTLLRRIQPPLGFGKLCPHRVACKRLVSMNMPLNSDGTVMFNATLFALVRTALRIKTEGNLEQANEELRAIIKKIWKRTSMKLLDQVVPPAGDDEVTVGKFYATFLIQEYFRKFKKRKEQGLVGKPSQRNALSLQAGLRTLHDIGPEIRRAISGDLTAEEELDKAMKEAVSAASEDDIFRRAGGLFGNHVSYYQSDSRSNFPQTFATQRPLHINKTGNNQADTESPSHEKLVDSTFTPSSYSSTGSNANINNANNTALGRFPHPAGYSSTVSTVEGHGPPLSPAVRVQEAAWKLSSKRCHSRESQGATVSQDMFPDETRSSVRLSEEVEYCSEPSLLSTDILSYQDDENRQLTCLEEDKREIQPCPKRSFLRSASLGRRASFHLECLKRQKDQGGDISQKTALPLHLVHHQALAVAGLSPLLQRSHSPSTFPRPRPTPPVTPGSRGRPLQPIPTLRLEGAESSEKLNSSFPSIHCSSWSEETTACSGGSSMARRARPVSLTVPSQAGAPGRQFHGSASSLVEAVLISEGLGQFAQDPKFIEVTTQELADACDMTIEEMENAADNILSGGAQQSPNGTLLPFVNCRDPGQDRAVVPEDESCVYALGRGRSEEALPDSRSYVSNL
T2 sequence (P54290 25-945 partner limits assumed, other chains not shown): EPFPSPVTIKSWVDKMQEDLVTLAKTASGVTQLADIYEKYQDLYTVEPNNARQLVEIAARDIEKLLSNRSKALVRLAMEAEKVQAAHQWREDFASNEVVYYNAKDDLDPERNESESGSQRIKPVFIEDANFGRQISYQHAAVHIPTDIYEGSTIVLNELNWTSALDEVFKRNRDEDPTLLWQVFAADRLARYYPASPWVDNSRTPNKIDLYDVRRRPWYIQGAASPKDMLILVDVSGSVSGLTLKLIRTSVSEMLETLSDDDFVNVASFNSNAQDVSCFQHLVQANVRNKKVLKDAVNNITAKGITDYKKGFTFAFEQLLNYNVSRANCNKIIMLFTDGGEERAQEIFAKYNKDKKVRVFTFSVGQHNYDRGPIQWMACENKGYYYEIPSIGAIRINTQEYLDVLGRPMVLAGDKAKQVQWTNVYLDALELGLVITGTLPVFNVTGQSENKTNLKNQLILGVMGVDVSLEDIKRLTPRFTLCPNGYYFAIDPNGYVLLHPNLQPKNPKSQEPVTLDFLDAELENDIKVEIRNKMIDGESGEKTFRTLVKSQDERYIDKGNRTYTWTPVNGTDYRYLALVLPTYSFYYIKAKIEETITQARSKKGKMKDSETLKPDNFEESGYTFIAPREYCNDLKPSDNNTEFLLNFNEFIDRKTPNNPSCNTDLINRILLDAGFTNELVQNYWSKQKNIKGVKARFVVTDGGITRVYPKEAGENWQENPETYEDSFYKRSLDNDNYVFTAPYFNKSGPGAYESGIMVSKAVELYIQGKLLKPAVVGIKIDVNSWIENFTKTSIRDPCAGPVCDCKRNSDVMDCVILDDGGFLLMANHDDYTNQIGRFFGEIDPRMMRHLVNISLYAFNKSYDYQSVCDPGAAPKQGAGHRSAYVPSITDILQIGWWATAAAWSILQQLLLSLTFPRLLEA
T2 sequence (P54290 946-1091 partner limits assumed, other chains not shown): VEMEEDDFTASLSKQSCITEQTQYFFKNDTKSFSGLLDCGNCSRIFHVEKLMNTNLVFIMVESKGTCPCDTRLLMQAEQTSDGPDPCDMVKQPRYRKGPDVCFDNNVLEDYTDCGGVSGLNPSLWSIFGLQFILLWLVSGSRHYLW

c1ccc([C@H]2CCC[C@H]2N=C2CCCCCCCCCCCN2)cc1 (relative stereo) [Test Compound 3, 2-[(cis-2-phenylcyclopentyl)imino]azacyclotridecane]
reversal of inotropic and chronotropic effects by calcium ([1]; administration of calcium): reversed by the administration of calcium
inotropic and chronotropic effects [1]: negative inotropic and chronotropic effects
effect on calcium currents (calcium currents): selectively reduced calcium currents with a potency similar to diltiazem
effect on [3H]nitrendipine binding [2]: enhanced [3H]nitrendipine binding in rat cerebral cortical and cardiac homogenates in a similar manner to diltiazem
inhibition of stimulated adenylate cyclase activity (adenylate cyclase): inhibit stimulated adenylate cyclase activity in a number of tissues
mean pA2 value (95% confidence interval), Schild plot [3]: 6.66 (6.31-7.44)
mean slope (±S.D.) of Schild plot [3]: 0.89 (0.16)
IC50 ([4]; 25° C.): 280 ± 30 nM
IC50 ([4]; 37° C.): 403 ± 77 nM
pKi ([4]; Table 1, displacement of 3H diltiazem, rat brain membranes, 25° C., n = 3, Cheng & Prusoff): 6.41
activity at 1 µM ([5]; 25° C.): 112 ± 2%
activity at 0.1 µM ([5]; 25° C.): 102 ± 1%
activity at 1 µM ([5]; 37° C.): 165 ± 13%
activity at 0.1 µM ([5]; 37° C.): 141 ± 8%
